# Tests used:
# [1] = Description: Bioanalysis was performed using a fit-for-purpose LC-MS/MS method for the quantification of tenofovir in rat plasma samples. The calibration curve (CC) for the method consisted of nine non-zero calibration standards along with a double blank and zero standard samples. Study samples were analyzed along with three sets of quality control samples (18 QC samples; low, medium and high QC samples).
# Plasma pharmacokinetic parameters were calculated using the non-compartmental analysis tool of Phoenix software (Version 6.3) and were determined from individual animals in each group. The peak plasma concentration (C), time to achieve peak plasma concentration (Tmax), the area under the plasma concentration-time curve (AUC0-t and AUCinf), AUC Extra (%), elimination half-life (T1/2), clearance (CL), volume of distribution Vd (L/kg) and Mean residence time (MRT) were calculated from intravenous group. The peak plasma concentration (C), time to achieve peak plasma concentration (T), AUC0-t and AUCinf, AUC Extra (%), Mean residence time (MRT) and absolute oral bioavailability (F) were calculated from the oral group.
# Staphylococcus aurues = conditions: cited from earlier work
# [2] = cited from earlier work
compound,measurement,setting,value
[2H]C1([2H])N=C(Nc2c(Cl)ccc3nsnc23)NC1([2H])[2H] [Tizanidine D4],CLF_Obs(PO),"[1]; rat plasma, 3 mg/kg PO",405 ± 189 mL/min/kg
COc1ccc2cc3[n+](cc2c1OC)CCc1cc2c(cc1-3)OCO2 [berberine],antimicrobial activity,"Staphylococcus aurues; berberine alone, in solution",very weak
same,increase of antimicrobial activity of berberine,"Staphylococcus aurues; in combination with 5-Methoxy hydnocarpin (5-MIC), against Staphylococcus aurues",200 folds
Oc1ccc(C=Cc2cc(O)cc(O)c2)cc1 [resveratrol],water solubility,[2],< 50 µg/mL
Tizanidine hydrochloride [Tizanidine HCl],AUCINF,"[1]; rat, in vivo, po, 3 mg/kg",111 ± 20 ng·h/mL
same,AUClast,"[1]; rat, in vivo, po, 3 mg/kg",106 ± 17.7 ng·h/mL
same,Vz/F_obs(PO),"[1]; rat, in vivo, po, 3 mg/kg",71.9 ± 36.1 L/kg

# Source: patent publication US20220193043A1 (CIPLA LIMITED, priority 2019, published 2022)
